Experimental data: US12331054B2, “Perk inhibiting imidazolopyrazine compounds” (HiberCell, Inc., priority 2019, dated 2025)

Assays:
[1] = target: Recombinant human EIF2AK3 (PERK) catalytic domain (amino acids 536-1116) (Homo sapiens (Human), UniProt Q9NZJ5); test: PERK In Vitro Activity Assay (isolated), TR-FRET kinase assay; conditions: isolated PERK enzyme, 1.5 μM ATP, read-out: Biochemical IC50
Excerpt: PERK In Vitro Activity Assay (isolated):
In vitro Inhibition of PERK Enzyme Activity (isolated) Recombinant human EIF2AK2 (PKR) catalytic domain (amino acids 252-551), EIF2AK3 (PERK) catalytic domain (amino acids 536-1116), GFP-eIF2a substrate, and Terbium-labelled phospho-eIF2a antibody is obtained (Invitrogen, Carlsbad, CA).
Express and purify HIS-SUMO-GCN2 catalytic domain (amino acids 584-1019) from E. coli. Perform TR-FRET kinase assays in the absence or presence of inhibitors in a reaction buffer consisting of 50 mM HEPES, pH 7.5, 10 mM MgCb, 1.0 mM EGTA, and 0.01% Brij-35, and 100-200 nM GFP-eIF2a substrate. […] Add test compound, initiate the reaction by addition of enzyme, and incubate at room temperature for 45 minutes. Stop the reaction by addition of EDTA to a final concentration of 10 mM, add Terbium-labelled phospho-eIF2a antibody at a final concentration of 2 nM, and incubate for 90 minutes. Monitor the resulting fluorescence in an EnVison® Multilabel reader (PerkinElmer, Waltham, MA). Determine TR-FRET ratios and the resulting IC50 values using a 4-parameter nonlinear logistic equation as shown: Y=(A+((B−A)/(1+(C/x)AD)))) where, Y=% specific inhibition, A=Bottom of the curve, B=Top of the curve, C=absolute IC50 (concentration causing 50% inhibition), and D=hill slope.

[2] = system: eIF2α in HEK293-EGFP-eIF2α cells; test: PERK Cellular Assay (HEK293-EGFP-eIF2α cells, tunicamycin-induced ER stress, TR-FRET); format: cell-based; conditions: tunicamycin 2 hours
Method: Stable cell lines were created in HEK293 cells using lentiviral particles harboring an expression vector for GFP-eIF2α. Cells were selected using puromycin and enriched using fluorescence activated cell sorting against GFP. HEK293-EGFP-eIF2α cells were plated at 5000 cells/well in 384-well assay plates and incubated overnight at 37° C., 5% CO2. Inhibitor compounds were added to the wells by Echo acoustic dispensing and incubated for 30 minutes at 37° C., 5% CO2 prior to induction of ER stress by addition of tunicamycin to […] for 2 hours. Cells were lysed and TR-FRET was measured in an EnVision plate reader (PerkinElmer). FRET ratio data was normalized to signal from lysates treated with DMSO vehicle control and plotted as percent inhibition against 10-point; 3-fold dilution series of inhibitors. IC50 values were calculated using 4-parameter logistical fitting in XLFit.

Sequence of Recombinant human EIF2AK3 (PERK) catalytic domain (amino acids 536-1116) (Q9NZJ5 536-1116): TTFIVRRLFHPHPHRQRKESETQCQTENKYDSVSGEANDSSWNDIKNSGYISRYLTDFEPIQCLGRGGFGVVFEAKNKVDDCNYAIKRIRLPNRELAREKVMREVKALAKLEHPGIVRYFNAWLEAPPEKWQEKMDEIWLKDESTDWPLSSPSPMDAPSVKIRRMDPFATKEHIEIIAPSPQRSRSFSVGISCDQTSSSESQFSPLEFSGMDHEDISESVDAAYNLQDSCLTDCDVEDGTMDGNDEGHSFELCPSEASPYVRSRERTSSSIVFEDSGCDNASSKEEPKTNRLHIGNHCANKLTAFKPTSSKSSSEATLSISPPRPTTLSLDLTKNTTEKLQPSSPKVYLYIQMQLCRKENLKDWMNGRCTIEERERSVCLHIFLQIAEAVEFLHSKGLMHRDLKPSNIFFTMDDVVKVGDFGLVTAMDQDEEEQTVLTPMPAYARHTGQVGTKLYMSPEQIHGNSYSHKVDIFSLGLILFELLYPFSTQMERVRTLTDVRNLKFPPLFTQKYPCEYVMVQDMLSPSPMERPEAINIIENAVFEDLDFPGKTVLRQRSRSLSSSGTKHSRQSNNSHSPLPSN

SMILES | IC50 [1] [µM] | IC50 [2] [µM]
[2H]C([2H])([2H])c1nc(-c2ccc(NC(=O)C(O)c3cccc(C(F)(F)F)c3)c(F)c2F)c2c(N)ncc(Cl)n12 (centres unmarked) [Example 153, N-[4-[8-amino-5-chloro-3-(trideuteriomethyl)imidazo[1,5-a]pyrazin-1-yl]-2,3-difluoro-phenyl]-2-hydroxy-2-[3-(trifluoromethyl)phenyl]acetamide] | 0.026 to 0.05 | 0.101 to 0.25
[2H]C([2H])([2H])c1nc(-c2ccc(NC(=O)C(O)c3cccc(C(F)(F)F)c3)nc2C)c2c(N)ncc(C)n12 (centres unmarked) [Example 174, N-[5-[8-amino-5-methyl-3-(trideuteriomethyl)imidazo[1,5-a]pyrazin-1-yl]-6-methyl-2-pyridyl]-2-hydroxy-2-[3-(trifluoromethyl)phenyl]acetamide] | 0.001 to 0.025 | 0.026 to 0.05
[2H]C([2H])([2H])c1nc(-c2ccc(NC(=O)C(O)c3cccc(F)c3)cc2F)c2c(N)ncc(Cl)n12 (centres unmarked) [Example 74, N-[4-[8-amino-5-chloro-3-(trideuteriomethyl)imidazo[1,5-a]pyrazin-1-yl]-3-fluoro-phenyl]-2-(3-fluorophenyl)-2-hydroxy-acetamide] | 0.001 to 0.025 | 0.001 to 0.025
Cc1cc(NC(=O)C(O)c2cccc(F)c2)ccc1-c1nc(C)n2c(C(F)(F)F)cnc(N)c12 (centres unmarked) [Example 27, N-(4-(8-amino-3-methyl-5-(trifluoromethyl)imidazo[1,5-a]pyrazin-1-yl)-3-methylphenyl)-2-(3-fluorophenyl)-2-hydroxyacetamide] | 0.001 to 0.025 | 0.251 to 0.5
[2H]C([2H])([2H])c1nc(-c2ccc(NC(=O)C(O)c3cc(F)cc(C(F)(F)F)c3)cc2F)c2c(N)ncc(C)n12 (centres unmarked) [Example 111, N-[4-[8-amino-5-methyl-3-(trideuteriomethyl)imidazo[1,5-a]pyrazin-1-yl]-3-fluoro-phenyl]-2-[3-fluoro-5-(trifluoromethyl)phenyl]-2-hydroxy-acetamide] | 0.001 to 0.025 | 0.026 to 0.05
[2H]C([2H])([2H])c1nc(-c2ccc(NC(=O)C(O)c3cccc(C(F)(F)F)c3)cc2C)c2c(N)ncc(C(F)(F)F)n12 (centres unmarked) [Example 21, N-[4-[8-amino-3-(trideuteriomethyl)-5-(trifluoromethyl)imidazo[1,5-a]pyrazin-1-yl]-3-methyl-phenyl]-2-hydroxy-2-[3-(trifluoromethyl)phenyl]acetamide] | 0.051 to 0.1 | 0.501 to 1
Cc1cnc(N)c2c(-c3ccc(NC(=O)C(O)c4cccc(F)c4)cc3F)nc(C)n12 (centres unmarked) [Example 71, N-(4-(8-amino-3,5-dimethylimidazo [1,5-a]pyrazin-1-yl)-3-fluorophenyl)-2-(3-fluorophenyl)-2-hydroxy-acetamide] | 0.001 to 0.025 | 0.051 to 0.1
[2H]C([2H])([2H])c1nc(-c2ccc(NC(=O)C(O)c3cc(F)cc(C(F)(F)F)c3)cc2F)c2c(N)ncc(Cl)n12 (centres unmarked) [Example 114, N-[4-[8-amino-5-chloro-3-(trideuteriomethyl)imidazo[1,5-a]pyrazin-1-yl]-3-fluoro-phenyl]-2-[3-fluoro-5-(trifluoromethyl)phenyl]-2-hydroxy-acetamide] | 0.001 to 0.025 | 0.001 to 0.025
[2H]C([2H])([2H])c1nc(-c2cnc(NC(=O)C(O)c3cccc(F)c3)cc2C)c2c(N)ncc(C)n12 (centres unmarked) [Example 180, N-[5-[8-amino-5-methyl-3-(trideuteriomethyl)imidazo[1,5-a]pyrazin-1-yl]-4-methyl-2-pyridyl]-2-(3-fluorophenyl)-2-hydroxy-acetamide] | 0.026 to 0.05 | 0.501 to 1
[2H]C([2H])([2H])c1nc(-c2ccc(NC(=O)C(O)c3cccc(C(F)(F)F)c3)nc2C)c2c(N)nc(C)cn12 (centres unmarked) [Example 176, N-[5-[8-amino-6-methyl-3-(trideuteriomethyl)imidazo[1,5-a]pyrazin-1-yl]-6-methyl-2-pyridyl]-2-hydroxy-2-[3-(trifluoromethyl)phenyl]acetamide] | 0.001 to 0.025 | 0.051 to 0.1
[2H]C([2H])([2H])c1nc(-c2ccc(NC(=O)C(O)c3cc(F)cc(F)c3)c(F)c2F)c2c(N)ncc(C)n12 (centres unmarked) [Example 155, N-[4-[8-amino-5-methyl-3-(trideuteriomethyl)imidazo[1,5-a]pyrazin-1-yl]-2,3-difluoro-phenyl]-2-(3,5-difluorophenyl)-2-hydroxy-acetamide] | 0.001 to 0.025 | 0.051 to 0.1
[2H]C([2H])([2H])c1nc(-c2ccc(NC(=O)C(O)c3cccc(Cl)c3)cc2F)c2c(N)nc(C)cn12 (centres unmarked) [Example 81, N-[4-[8-amino-6-methyl-3-(trideuteriomethyl)imidazo[1,5-a]pyrazin-1-yl]-3-fluoro-phenyl]-2-(3-chlorophenyl)-2-hydroxy-acetamide] | 0.001 to 0.025 | 0.101 to 0.25
[2H]C([2H])([2H])c1nc(-c2ccc(NC(=O)C(O)c3cccc(C(F)(F)F)c3)c(F)c2F)c2c(N)nc(C)cn12 (centres unmarked) [Example 150, N-[4-[8-amino-6-methyl-3-(trideuteriomethyl)imidazo[1,5-a]pyrazin-1-yl]-2,3-difluoro-phenyl]-2-hydroxy-2-[3-(trifluoromethyl)phenyl]acetamide] | 0.001 to 0.025 | 0.026 to 0.05
CCc1cc(NC(=O)C(O)c2cccc(F)c2)ccc1-c1nc(C)n2c(C)cnc(N)c12 (centres unmarked) [Example 67, N-(4-(8-amino-3,5-dimethylimidazo [1,5-a]pyrazin-1-yl)-3-ethylphenyl)-2-(3-fluorophenyl)-2-hydroxy-acetamide] | 0.001 to 0.025 | 0.101 to 0.25
[2H]C([2H])([2H])c1nc(-c2ccc(NC(=O)C(O)c3cccc(F)c3)c(F)c2F)c2c(N)ncc(Cl)n12 (centres unmarked) [Example 137, N-[4-[8-amino-5-chloro-3-(trideuteriomethyl)imidazo[1,5-a]pyrazin-1-yl]-2,3-difluoro-phenyl]-2-(3-fluoro-phenyl)-2-hydroxy-acetamide] | 0.001 to 0.025 | 0.251 to 0.5
[2H]C([2H])([2H])c1nc(-c2ccc(NC(=O)C(O)c3cc(F)cc(C(F)(F)F)c3)cc2C)c2c(N)ncc(C(F)(F)F)n12 (centres unmarked) [Example 60, N-[4-[8-amino-3-(trideuteriomethyl)-5-(trifluoromethyl)imidazo[1,5-a]pyrazin-1-yl]-3-methyl-phenyl]-2-[3-fluoro-5-(trifluoromethyl)phenyl]-2-hydroxy-acetamide] | 0.001 to 0.025 | 0.026 to 0.05
[2H]C([2H])([2H])c1nc(-c2ccc(NC(=O)C(O)c3cccc(F)c3)c(F)c2F)c2c(N)ncc(C(F)(F)F)n12 (centres unmarked) [Example 134, N-[4-[8-amino-3-(trideuteriomethyl)-5-(trifluoromethyl)imidazo[1,5-a]pyrazin-1-yl]-2,3-difluoro-phenyl]-2-(3-fluorophenyl)-2-hydroxy-acetamide] | 0.001 to 0.025 | 0.001 to 0.025
[2H]C([2H])([2H])c1nc(-c2ccc(NC(=O)C(O)c3cc(F)cc(C(F)(F)F)c3)c(F)c2F)c2c(N)ncc(C)n12 (centres unmarked) [Example 160, N-[4-[8-amino-5-methyl-3-(trideuteriomethyl)imidazo[1,5-a]pyrazin-1-yl]-2,3-difluoro-phenyl]-2-[3-fluoro-5-(trifluoromethyl)phenyl]-2-hydroxy-acetamide] | 0.001 to 0.025 | 0.001 to 0.025
[2H]C([2H])([2H])c1nc(-c2ccc(NC(=O)C(O)c3cccc(Cl)c3)cc2C)c2c(N)ncc(C)n12 (centres unmarked) [Example 36, N-[4-[8-amino-5-methyl-3-(trideuteriomethyl)imidazo[1,5-a]pyrazin-1-yl]-3-methyl-phenyl]-2-(3-chlorophenyl)-2-hydroxy-acetamide] | 0.001 to 0.025 | 0.001 to 0.025
